According to ChEMBL document CHEMBL3044672, “N9- and N7-(Chloromethyl Phenymethyl)Chloropurine Derivatives from , '-Dichloroxylenes: Synthesis and Anticancer Activity” (2005):

How the values were obtained:
Assay type in all cases: functional
ACHN = test: Cytotoxicity against Homo sapiens (human) ACHN cells after 48 hr by sulforhodamine B assay
786-0 = test: Cytotoxicity against Homo sapiens (human) 786-0 cells after 48 hr by sulforhodamine B assay; conditions: 786-0, 48 h
SK-OV-3 = test: Cytotoxicity against Homo sapiens (human) SKOV3 cells after 48 hr by sulforhodamine B assay; conditions: SK-OV-3, 48 h
OVCAR-5 = test: Cytotoxicity against Homo sapiens (human) OVCAR5 cells after 48 hr by sulforhodamine B assay; conditions: OVCAR-5, 48 h
IGROV-1 = test: Cytotoxicity against Homo sapiens (human) IGROV1 cells after 48 hr by sulforhodamine B assay; conditions: IGROV-1, 48 h
UACC-62 = test: Cytotoxicity against Homo sapiens (human) UACC62 cells after 48 hr by sulforhodamine B assay; conditions: UACC-62, 48 h
UACC-257 = test: Cytotoxicity against Homo sapiens (human) UACC257 cells after 48 hr by sulforhodamine B assay; conditions: UACC-257, 48 h
SK-MEL-5 = test: Cytotoxicity against Homo sapiens (human) SK-MEL-5 cells after 48 hr by sulforhodamine B assay; conditions: SK-MEL-5, 48 h
SK-MEL-2 = test: Cytotoxicity against Homo sapiens (human) SK-MEL-2 cells after 48 hr by sulforhodamine B assay; conditions: SK-MEL-2, 48 h
LOX IMVI = test: Cytotoxicity against Homo sapiens (human) LOXIMVI cells after 48 hr by sulforhodamine B assay
M14 = test: Cytotoxicity against Homo sapiens (human) M14 cells after 48 hr by sulforhodamine B assay; conditions: M14, 48 h
SNB-19 = test: Cytotoxicity against Homo sapiens (human) SNB19 cells after 48 hr by sulforhodamine B assay; conditions: SNB-19, 48 h
T47D = test: Cytotoxicity against Homo sapiens (human) T47D cells after 48 hr by sulforhodamine B assay
Hs-578T = test: Cytotoxicity against Homo sapiens (human) Hs 578T cells after 48 hr by sulforhodamine B assay
[1] = Cytotoxicity against Homo sapiens (human) NCI-ADR-RES cells after 48 hr by sulforhodamine B assay
MDA-MB-231 = test: Cytotoxicity against Homo sapiens (human) MDA-MB-231 cells after 48 hr by sulforhodamine B assay; conditions: MDA-MB-231, 48 h
DU-145 = test: Cytotoxicity against Homo sapiens (human) DU145 cells after 48 hr by sulforhodamine B assay; conditions: DU-145, 48 h
TK-10 = test: Cytotoxicity against Homo sapiens (human) TK10 cells after 48 hr by sulforhodamine B assay; conditions: TK-10, 48 h
RXF 393 = test: Cytotoxicity against Homo sapiens (human) RXF393 cells after 48 hr by sulforhodamine B assay; conditions: RXF 393, 48 h
CAKI-1 = test: Cytotoxicity against Homo sapiens (human) Caki1 cells after 48 hr by sulforhodamine B assay; conditions: CAKI-1, 48 h
SF-295 = test: Cytotoxicity against Homo sapiens (human) SF295 cells after 48 hr by sulforhodamine B assay; conditions: SF-295, 48 h
SF-268 = test: Cytotoxicity against Homo sapiens (human) SF268 cells after 48 hr by sulforhodamine B assay; conditions: SF-268, 48 h
HCC 2998 = test: Cytotoxicity against Homo sapiens (human) HCC2998 cells after 48 hr by sulforhodamine B assay; conditions: HCC 2998, 48 h
NCI-H460 = test: Cytotoxicity against Homo sapiens (human) NCI-H460 cells after 48 hr by sulforhodamine B assay; conditions: NCI-H460, 48 h
NCI-H322M = test: Cytotoxicity against Homo sapiens (human) NCI-H322M cells after 48 hr by sulforhodamine B assay
NCI-H23 = test: Cytotoxicity against Homo sapiens (human) NCI-H23 cells after 48 hr by sulforhodamine B assay; conditions: NCI-H23, 48 h
HOP-62 = test: Cytotoxicity against Homo sapiens (human) HOP62 cells after 48 hr by sulforhodamine B assay; conditions: HOP-62, 48 h
HOP-92 = test: Cytotoxicity against Homo sapiens (human) HOP92 cells after 48 hr by sulforhodamine B assay; conditions: HOP-92, 48 h
EKVX = test: Cytotoxicity against Homo sapiens (human) EKVX cells after 48 hr by sulforhodamine B assay
A549 = test: Cytotoxicity against Homo sapiens (human) A549 cells after 48 hr by sulforhodamine B assay; conditions: A549, 48 h
MOLT-4 = test: Cytotoxicity against Homo sapiens (human) MOLT4 cells after 48 hr by sulforhodamine B assay; conditions: MOLT-4, 48 h
[2] = read-out: LC50 (the source's name)

## ClCc1cccc(Cn2cnc3c(Cl)ncnc32)c1
ACHN
  GI50: 2.08 µM
  TGI: 4.07 µM
ACHN; [2]
  CC50: 8.12 µM
786-0
  GI50: 6.16 µM
  LC50: 50.1 µM
  TGI: 19.9 µM
SK-OV-3
  GI50: 3.31 µM
  LC50: 33.1 µM
  TGI: 10.5 µM
OVCAR-5
  GI50: 2.08 µM
  TGI: 4.36 µM
OVCAR-5; [2]
  CC50: 8.91 µM
IGROV-1
  GI50: 9.33 µM
  LC50: > 100 µM
  TGI: 33.9 µM
UACC-62
  GI50: 1.82 µM
  LC50 (concentration causing 50% net cell kill): 6.31 µM
  TGI: 3.38 µM
UACC-257
  GI50: 20.4 µM
  LC50 (concentration killing 50% of cells): 67.6 µM
  TGI: 37.1 µM
SK-MEL-5
  GI50: 2.29 µM
  LC50: 24.6 µM
  TGI: 6.31 µM
SK-MEL-2
  GI50: 21.9 µM
  LC50 (concentration killing 50% of cells): > 100 µM
  TGI: 51.3 µM
LOX IMVI
  GI50: 1.95 µM
  LC50: 27.5 µM
  TGI: 5.01 µM
M14
  GI50: 1.66 µM
  LC50: 6.6 µM
  TGI: 3.31 µM
SNB-19
  GI50: 2.63 µM
  LC50: > 100 µM
  TGI: 12.6 µM
T47D
  GI50: 3.02 µM
  LC50: > 100 µM
  TGI: 12.3 µM
Hs-578T
  GI50: 3.46 µM
  LC50: 81.3 µM
  TGI: 11.5 µM
[1]
  GI50: 2.45 µM
  LC50 (concentration killing 50% of cells): 37.1 µM
  TGI: 7.58 µM
MDA-MB-231
  GI50: 1.99 µM
  LC50: 8.12 µM
  TGI: 4.07 µM
DU-145
  GI50: 11.2 µM
  LC50: 51.3 µM
  TGI: 24 µM
TK-10
  GI50: 4.57 µM
  TGI: 16.2 µM
TK-10; [2]
  CC50: 46.8 µM
RXF 393
  GI50: 2.29 µM
  TGI: 24 µM
RXF 393; [2]
  CC50: 70.8 µM
CAKI-1
  GI50: 1.54 µM
  TGI: 2.95 µM
CAKI-1; [2]
  CC50: 5.62 µM
SF-295
  GI50: 3.23 µM
  TGI: 8.7 µM
SF-295; [2]
  CC50: 29.5 µM
SF-268
  GI50: 3.54 µM
  TGI: 15.5 µM
SF-268; [2]
  CC50: > 100 µM
HCC 2998
  GI50: 0.4 µM
  TGI: 1.73 µM
HCC 2998; [2]
  CC50: 5.49 µM
NCI-H460
  GI50: 11.8 µM
  TGI: 36.3 µM
NCI-H460; [2]
  CC50: > 100 µM
NCI-H322M
  GI50: 1.9 µM
  TGI: 3.46 µM
NCI-H322M; [2]
  CC50: 6.45 µM
NCI-H23
  GI50: 1.9 µM
  TGI: 4.07 µM
NCI-H23; [2]
  CC50: 8.71 µM
HOP-62
  GI50: 2.63 µM
  TGI: 5.12 µM
HOP-62; [2]
  CC50: 10.2 µM
HOP-92
  GI50: 2.45 µM
  TGI: 6.16 µM
HOP-92; [2]
  CC50: 31.6 µM
EKVX
  GI50: 18.6 µM
  TGI: 33.9 µM
EKVX; [2]
  CC50: 63.1 µM
A549
  GI50: 19.5 µM
  TGI: 39.8 µM
A549; [2]
  CC50: 79.4 µM
MOLT-4
  GI50: 15.8 µM
  TGI: 37.1 µM
MOLT-4; [2]
  CC50: 89.1 µM
